Source: patent US11173145B2, “Compounds useful as inhibitors of indoleamine 2,3-dioxygenase and/or tryptophan dioxygenase” (Board of Regents, The University of Texas System, priority 2017, dated 2021)

Legend:
IDO1 = molecular target: T1, IDO1 (Homo sapiens, UniProt P14902); test: IDO1 cell-based assay (HeLa cells, IFNgamma-induced, N-formylkynurenine/L-tryptophan by RFMS); conditions: 10 ng/mL IFNgamma, 24 hours
T1 construct: endogenous in cells; host or cells: HeLa cells (ATCC), IFNgamma-induced
Procedure, shortened: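 N-formylkynurenine and tryptophan peak areas in media measured by RFMS (C18, isocratic, d-Trp standard), giving IC50 values by regression. Source: HeLa cells incubated 24 h with IFNgamma (10 ng/mL) plus test compound at 0.5% DMSO; parallel CellTiter-Glo viability read.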

mouse IDO1 = molecular target: T2, mouse IDO1 (Mus musculus, UniProt P28776); test: Mouse IDO1 cell-based assay (PANC02 cells, mouse IFNgamma-induced, N-formylkynurenine/L-tryptophan by RFMS); conditions: 30 ng/mL mouse IFNgamma, 48 hours
T2 construct: The murine PANC02 pancreatic ductal adenocarcinoma cell line was routinely maintained in DMEM media; endogenous in cells; host or cells: PANC02 murine pancreatic ductal adenocarcinoma cells, induced with mouse IFNgamma
T2 sequence (P28776 whole entry): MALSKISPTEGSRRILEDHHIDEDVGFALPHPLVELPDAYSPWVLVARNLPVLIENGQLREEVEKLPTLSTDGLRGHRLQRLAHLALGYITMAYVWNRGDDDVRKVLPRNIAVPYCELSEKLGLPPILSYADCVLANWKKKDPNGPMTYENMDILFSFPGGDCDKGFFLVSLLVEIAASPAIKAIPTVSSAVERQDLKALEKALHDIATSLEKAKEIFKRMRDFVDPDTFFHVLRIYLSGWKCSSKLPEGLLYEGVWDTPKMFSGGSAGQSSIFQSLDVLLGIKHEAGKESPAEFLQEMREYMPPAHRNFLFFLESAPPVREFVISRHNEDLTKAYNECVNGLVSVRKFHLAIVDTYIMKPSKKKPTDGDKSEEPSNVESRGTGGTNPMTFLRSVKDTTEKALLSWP

T1 sequence (P14902 whole entry): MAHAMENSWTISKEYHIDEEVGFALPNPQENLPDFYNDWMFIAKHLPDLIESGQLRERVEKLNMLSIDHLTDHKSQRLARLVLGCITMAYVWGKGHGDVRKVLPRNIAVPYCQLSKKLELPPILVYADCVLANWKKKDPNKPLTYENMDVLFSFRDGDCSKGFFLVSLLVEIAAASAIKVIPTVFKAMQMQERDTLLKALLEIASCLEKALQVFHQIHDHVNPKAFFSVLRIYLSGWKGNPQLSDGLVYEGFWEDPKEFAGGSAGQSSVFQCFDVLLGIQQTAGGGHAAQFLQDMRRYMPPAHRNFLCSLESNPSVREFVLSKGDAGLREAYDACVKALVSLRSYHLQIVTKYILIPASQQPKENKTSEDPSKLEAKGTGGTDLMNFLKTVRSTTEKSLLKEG

Row | IC50 (IDO1) [nM] | IC50 (mouse IDO1) [nM] | Structure (SMILES)
1 | 200 to 2000 | 500 to 2000 | CCC(NC(=O)c1ccc(Cl)cc1)[C@H]1[C@@H]2C[C@H](n3nncc3C3CC3)C[C@@H]21 (stereo partly drawn) [Compound 191, 4-chloro-N-(1-((1R,3r,5S,6r)-3-(5-cyclopropyl-1H-1,2,3-triazol-1-yl)bicyclo[3.1.0]hexan-6-yl)propyl)benzamide]
2 | < 200 | < 500 | CCC(NC(=O)c1ccc(Cl)cc1)[C@H]1[C@@H]2C[C@@H](n3cc4cccnc4n3)C[C@@H]21 (stereo partly drawn) [Compound 211, N-(1-((1R,3s,5S,6r)-3-(2H-pyrazolo[3,4-b]pyridin-2-yl)bicyclo[3.1.0]hexan-6-yl)propyl)-4-chlorobenzamide]
3 | < 200 | 500 to 2000 | CCC(NC(=O)c1ccc(Cl)cc1)[C@H]1[C@@H]2C[C@@H](N3Cc4ccccc4C3=O)C[C@@H]21 (stereo partly drawn) [Compound 175, 4-chloro-N-(1-((1R,3s,5S,6r)-3-(1-oxoisoindolin-2-yl)bicyclo[3.1.0]hexan-6-yl)propyl)benzamide]
4 | < 200 | < 500 | CCC(NC(=O)c1ccc(Cl)cc1)[C@H]1[C@@H]2C[C@@H](n3cc4cccc(F)c4n3)C[C@@H]21 (stereo partly drawn) [Compound 205, 4-chloro-N-(1-((1R,3s,5S,6r)-3-(7-fluoro-2H-indazol-2-yl)bicyclo[3.1.0]hexan-6-yl)propyl)benzamide]

The remaining lines, values behind:

Row | Structure (SMILES) | IC50 (IDO1) [nM] | IC50 (mouse IDO1) [nM]
5 | CCC(NC(=O)c1ccc(Cl)cc1)[C@H]1[C@@H]2C[C@@H](n3nnc4ccc(Br)cc43)C[C@@H]21 (stereo partly drawn) [Compound 178, N-(1-((1R,3s,5S,6r)-3-(6-bromo-1H-benzo[d][1,2,3]triazol-1-yl)bicyclo[3.1.0]hexan-6-yl)propyl)-4-chlorobenzamide] | < 200 | < 500
6 | CCC(NC(=O)c1ccc(Cl)cc1)[C@H]1[C@@H]2C[C@@H](C(C(=O)O)c3ccccc3)C[C@@H]21 (stereo partly drawn) [Compound 228, 2-((1R,3s, 5S, 6r)-6-(1-(4-chlorobenzamido)propyl)bicyclo[3.1.0]hexan-3-yl)-2-phenylacetic acid] | 2000 to 5000 | 2000 to 5000
7 | CCC(NC(=O)c1ccc(Cl)cc1)[C@H]1[C@@H]2C[C@@H](C(C(=O)OC)c3ccccc3)C[C@@H]21 (mixture of isomers) [Compound 203, methyl (S)-2-((R, 3R, 5S,6S)-6-((S)-1-(4-chlorobenzamido)propyl)bicyclo[3.1.0]hexan-3-yl)-2-phenylacetate and methyl (R)-2-((1R,3R,5S, 6S)-6-((R)-1-(4-chlorobenzamido)propyl)bicyclo[3.1.0]hexan-3-yl)-2-phenylacetate] | 200 to 2000 | < 500
8 | CCC(NC(=O)c1ccc(Cl)cc1)[C@H]1[C@@H]2C[C@@H](NC(C(=O)O)c3ccccc3)C[C@@H]21 (stereo partly drawn) [Compound 217, 2-(((1R,3s,5S,6r)-6-(1-(4-chlorobenzamido)propyl)bicyclo[3.1.0]hexan-3-yl)amino)-2-phenylacetic acid] | > 5000 | > 5000
9 | CCc1cn([C@@H]2C[C@@H]3[C@H](C2)[C@H]3C(CC)NC(=O)c2ccc(Cl)cc2)nn1 (stereo partly drawn) [Compound 167, 4-chloro-N-(1-((1R,3s,5S,6r)-3-(4-ethyl-1H-1,2,3-triazol-1-yl)bicyclo[3.1.0]hexan-6-yl)propyl)benzamide] | < 200 | < 500
10 | CCC(NC(=O)c1ccc(Cl)cc1)[C@H]1[C@@H]2C[C@@H](n3cc(C4CN(C(=O)OC(C)(C)C)C4)nn3)C[C@@H]21 (stereo partly drawn) [Compound 233, tert-butyl 3-(1-((1R,3s,5S,6r)-6-(1-(4-chlorobenzamido)propyl)bicyclo[3.1.0]hexan-3-yl)-1H-1,2,3-triazol-4-yl)azetidine-1-carboxylate] | 2000 to 5000 | > 5000
11 | CCC(NC(=O)c1ccc(Cl)cc1)[C@H]1[C@@H]2C[C@H](n3cc(COC)nn3)C[C@@H]21 (stereo partly drawn) [Compound 214, 4-chloro-N-(1-((1R,3r,5S,6r)-3-(4-(methoxymethyl)-1H-1,2,3-triazol-1-yl)bicyclo[3.1.0]hexan-6-yl)propyl)benzamide] | < 200 | < 500
12 | CCc1cnnn1[C@@H]1C[C@@H]2[C@H](C1)[C@H]2C(CC)NC(=O)c1ccc(Cl)cc1 (stereo partly drawn) [Compound 165, 4-chloro-N-(1-((1R,3s,5S,6r)-3-(5-ethyl-1H-1,2,3-triazol-1-yl)bicyclo[3.1.0]hexan-6-yl)propyl)benzamide] | < 200 | < 500
